# Test results reported in publication PMC9303275, “Direct adenylation from 5′-OH-terminated oligonucleotides by a fusion enzyme containing Pfu RNA ligase and T4 polynucleotide kinase” (Nucleic Acids Research, 2022).
# T1: Pfu RNA ligase (Pfu Rnl) (Pyrococcus furiosus, UniProt Q8U3V2)
# T1 construct: gene PF0353; full length, 379 aa, N-terminal 8xHis tag (not reported cut), codon optimised, pET28a, E. coli BL21(DE3), ~42 kDa, mainly homodimer
# T1 sequence (Q8U3V2 1-379): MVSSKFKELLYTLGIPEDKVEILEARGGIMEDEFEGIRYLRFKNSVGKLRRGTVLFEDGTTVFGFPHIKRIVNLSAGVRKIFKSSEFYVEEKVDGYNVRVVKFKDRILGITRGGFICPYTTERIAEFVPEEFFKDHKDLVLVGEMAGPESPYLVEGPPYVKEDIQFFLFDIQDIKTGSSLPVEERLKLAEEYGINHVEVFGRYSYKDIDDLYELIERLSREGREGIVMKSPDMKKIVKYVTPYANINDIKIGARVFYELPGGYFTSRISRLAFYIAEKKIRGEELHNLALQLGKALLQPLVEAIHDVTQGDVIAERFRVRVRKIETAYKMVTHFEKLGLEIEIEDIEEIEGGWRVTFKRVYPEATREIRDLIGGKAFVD
# T2: Mth RNA ligase (Mth Rnl) (Methanothermobacter thermautotrophicus, UniProt O27289)
# T2 construct: gene MTH_1221; commercial enzyme (New England Biolabs, 5' DNA adenylation kit)
# T2 sequence (O27289 1-381): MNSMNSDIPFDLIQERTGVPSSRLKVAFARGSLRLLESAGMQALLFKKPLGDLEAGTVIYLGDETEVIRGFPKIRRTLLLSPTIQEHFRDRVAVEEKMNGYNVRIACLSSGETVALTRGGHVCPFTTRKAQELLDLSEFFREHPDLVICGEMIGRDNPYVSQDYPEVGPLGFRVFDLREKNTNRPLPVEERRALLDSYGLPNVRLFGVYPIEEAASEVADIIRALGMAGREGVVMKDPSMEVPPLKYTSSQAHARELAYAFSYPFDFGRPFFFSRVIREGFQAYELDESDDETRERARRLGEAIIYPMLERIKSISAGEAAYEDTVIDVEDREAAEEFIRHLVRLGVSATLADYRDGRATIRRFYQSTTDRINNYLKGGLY
# Legend:
# Pfu RNA ligase (Pfu Rnl) = biological target: T1, Pfu RNA ligase (Pfu Rnl); assay: oligonucleotide adenylation, denaturing urea-PAGE, SYBR Gold; format: biochemical
# Mth RNA ligase (Mth Rnl) = biological target: T2, Mth RNA ligase (Mth Rnl); assay: oligonucleotide adenylation, denaturing urea-PAGE; format: biochemical; conditions: 5'-phosphorylated 55-nt ssDNA; commercial kit protocol
# [1] = biological target: the molecule itself; assay: SEC; gel filtration on HiLoad 26/600 Superdex 200 pg, 50 mM phosphate, 150 mM NaCl, pH 7.0, 2.6 ml/min; elution volumes compared with molecular weight standards; each protein loaded separately
molecule,measurement,setting,value
Nc1ncnc2c1ncn2[C@@H]1O[C@H](COP(=O)(O)OP(=O)(O)O)[C@@H](O)[C@H]1O [ADP],"oligonucleotide adenylation, denaturing urea-PAGE, SYBR Gold","Pfu RNA ligase (Pfu Rnl); 5'-phosphorylated 17-nt and 55-nt ssDNA, 5 mM MgCl2, 70 mM Tris-HCl pH 7.0, 80 °C, weak activity",weak catalytic activity with ADP and almost no catalytic activity with AMP
Nc1ncnc2c1ncn2[C@@H]1O[C@H](COP(=O)(O)OP(=O)(O)OP(=O)(O)O)[C@@H](O)[C@H]1O [ATP],"oligonucleotide adenylation, denaturing urea-PAGE",Mth RNA ligase (Mth Rnl),"As expected, both enzymes achieved near complete conversion"
same,"oligonucleotide adenylation, denaturing urea-PAGE, SYBR Gold","Pfu RNA ligase (Pfu Rnl); 5'-phosphorylated ssDNA, 5 mM MgCl2, 70 mM Tris-HCl pH 7.0, 5 mM DTT, 80 °C, 30 min",Pfu Rnl showed the best activity with ATP as the adenosyl source
"Pfu RNA ligase (enzyme, Pyrococcus furiosus, UniProt Q8U3V2 1-379, looked up, Pfu RNA ligase (Pfu Rnl) of Pyrococcus furiosus, encoded by the PF0353 gene, 379 amino acids, full length; No tag removal is described; also called Pfu Rnl; Q8U3V2 protein; source: E. coli BL21(DE3), purified (HisTrap FF, HiTrap Heparin HP)) MVSSKFKELLYTLGIPEDKVEILEARGGIMEDEFEGIRYLRFKNSVGKLRRGTVLFEDGTTVFGFPHIKRIVNLSAGVRKIFKSSEFYVEEKVDGYNVRVVKFKDRILGITRGGFICPYTTERIAEFVPEEFFKDHKDLVLVGEMAGPESPYLVEGPPYVKEDIQFFLFDIQDIKTGSSLPVEERLKLAEEYGINHVEVFGRYSYKDIDDLYELIERLSREGREGIVMKSPDMKKIVKYVTPYANINDIKIGARVFYELPGGYFTSRISRLAFYIAEKKIRGEELHNLALQLGKALLQPLVEAIHDVTQGDVIAERFRVRVRKIETAYKMVTHFEKLGLEIEIEDIEEIEGGWRVTFKRVYPEATREIRDLIGGKAFVD",stoichiometry N,[1],2
